Measured values taken from PMC4852132 (Biochemistry, 2016).
“And” between values parts separate entries of the source, which are not always exact repeats. Equal entries are not always repeated. Where two headings read alike, the source gives them in different places.

What was measured:
[1] = molecular target: T1, E1p-h (Homo sapiens, UniProt P08559+P11177); details: MeOThDP bound on E1p-h; CD309 vs pH
T1 sequence (P08559 30-390): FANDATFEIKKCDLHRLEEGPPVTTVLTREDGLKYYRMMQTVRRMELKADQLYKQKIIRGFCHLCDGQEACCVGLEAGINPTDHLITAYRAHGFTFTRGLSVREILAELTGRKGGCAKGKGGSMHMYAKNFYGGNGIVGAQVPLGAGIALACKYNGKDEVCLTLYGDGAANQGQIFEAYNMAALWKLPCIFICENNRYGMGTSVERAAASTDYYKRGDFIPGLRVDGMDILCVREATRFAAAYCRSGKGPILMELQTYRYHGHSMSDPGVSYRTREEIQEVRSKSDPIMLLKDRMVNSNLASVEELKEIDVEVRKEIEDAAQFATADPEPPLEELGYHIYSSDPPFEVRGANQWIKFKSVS
T1 sequence (P11177 31-359): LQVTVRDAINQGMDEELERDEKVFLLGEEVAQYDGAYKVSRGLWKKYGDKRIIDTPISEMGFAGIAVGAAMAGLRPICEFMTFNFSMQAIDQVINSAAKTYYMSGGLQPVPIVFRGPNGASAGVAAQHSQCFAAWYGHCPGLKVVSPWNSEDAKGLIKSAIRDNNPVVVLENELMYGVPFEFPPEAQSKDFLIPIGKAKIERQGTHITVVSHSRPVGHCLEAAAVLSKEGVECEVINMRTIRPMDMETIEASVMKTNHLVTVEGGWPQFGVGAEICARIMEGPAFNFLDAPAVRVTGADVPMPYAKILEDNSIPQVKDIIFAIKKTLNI

[2] = molecular target: E1p-ec (Escherichia coli, UniProt P0AFG8)
[3] = molecular target: T2, E1o-h (Homo sapiens, UniProt Q02218); assay: E1o-h specific activity; type: biochemical
T2 sequence (Q02218 41-1023): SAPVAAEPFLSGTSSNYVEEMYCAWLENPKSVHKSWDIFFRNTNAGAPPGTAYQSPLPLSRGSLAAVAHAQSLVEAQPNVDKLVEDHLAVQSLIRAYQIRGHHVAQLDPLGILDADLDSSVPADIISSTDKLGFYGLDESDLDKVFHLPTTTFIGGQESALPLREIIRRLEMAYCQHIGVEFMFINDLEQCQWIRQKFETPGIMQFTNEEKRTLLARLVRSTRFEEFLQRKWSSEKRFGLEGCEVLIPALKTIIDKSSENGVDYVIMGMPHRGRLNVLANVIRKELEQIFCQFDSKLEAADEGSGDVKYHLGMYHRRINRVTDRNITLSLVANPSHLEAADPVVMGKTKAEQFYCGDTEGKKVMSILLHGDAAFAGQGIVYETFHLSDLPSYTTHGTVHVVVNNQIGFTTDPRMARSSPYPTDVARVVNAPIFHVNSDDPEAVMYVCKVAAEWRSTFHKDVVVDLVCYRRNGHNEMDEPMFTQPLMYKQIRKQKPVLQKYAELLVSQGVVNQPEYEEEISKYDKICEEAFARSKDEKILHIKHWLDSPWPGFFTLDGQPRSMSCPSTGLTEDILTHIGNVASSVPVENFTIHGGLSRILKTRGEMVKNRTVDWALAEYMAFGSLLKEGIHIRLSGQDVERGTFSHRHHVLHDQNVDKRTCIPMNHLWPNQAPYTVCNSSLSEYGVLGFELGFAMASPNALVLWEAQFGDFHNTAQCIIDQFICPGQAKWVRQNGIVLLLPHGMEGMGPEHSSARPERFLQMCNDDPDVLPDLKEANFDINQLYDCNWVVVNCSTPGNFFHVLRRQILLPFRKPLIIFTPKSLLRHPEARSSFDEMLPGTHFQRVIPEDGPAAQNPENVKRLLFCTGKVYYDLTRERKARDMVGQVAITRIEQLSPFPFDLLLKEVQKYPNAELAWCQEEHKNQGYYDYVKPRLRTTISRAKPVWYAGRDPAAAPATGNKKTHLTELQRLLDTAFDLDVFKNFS

[4] = molecular target: T1, E1p-h; details: ThDP on E1p-h; cited from earlier work

E1p-ec, sequence (P0AFG8 2-887 limits assumed): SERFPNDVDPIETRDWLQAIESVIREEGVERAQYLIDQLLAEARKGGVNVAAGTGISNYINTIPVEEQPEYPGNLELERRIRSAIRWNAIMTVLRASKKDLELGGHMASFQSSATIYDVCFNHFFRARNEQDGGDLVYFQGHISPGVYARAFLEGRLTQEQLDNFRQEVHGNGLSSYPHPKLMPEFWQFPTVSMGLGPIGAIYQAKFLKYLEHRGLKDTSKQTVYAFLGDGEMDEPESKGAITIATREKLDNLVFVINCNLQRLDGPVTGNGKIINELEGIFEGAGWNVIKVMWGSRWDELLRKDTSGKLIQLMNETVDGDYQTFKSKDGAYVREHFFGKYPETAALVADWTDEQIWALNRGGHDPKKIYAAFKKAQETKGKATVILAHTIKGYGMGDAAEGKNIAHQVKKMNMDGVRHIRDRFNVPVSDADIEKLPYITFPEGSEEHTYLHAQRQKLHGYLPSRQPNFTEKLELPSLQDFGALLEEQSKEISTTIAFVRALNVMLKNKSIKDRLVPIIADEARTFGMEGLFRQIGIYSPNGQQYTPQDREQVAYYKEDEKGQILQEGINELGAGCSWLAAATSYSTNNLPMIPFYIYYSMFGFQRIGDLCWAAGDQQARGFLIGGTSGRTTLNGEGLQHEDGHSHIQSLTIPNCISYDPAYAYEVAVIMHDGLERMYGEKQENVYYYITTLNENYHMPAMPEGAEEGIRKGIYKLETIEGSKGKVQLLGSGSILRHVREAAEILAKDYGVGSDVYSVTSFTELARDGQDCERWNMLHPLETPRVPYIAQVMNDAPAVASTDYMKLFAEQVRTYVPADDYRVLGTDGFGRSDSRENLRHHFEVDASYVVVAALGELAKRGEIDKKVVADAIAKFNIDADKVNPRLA

Structure (SMILES) | pKa for the ([AP] + [IP])/[APH^+] equilibrium [1] | rate constant of reductive acetylation of LDh-ec ([2]; E1p-ec complexed with MeOThDP (0.20 mM), 2 mM pyruvate) [s⁻¹] | rate constant of reductive acetylation, times slower than with ThDP ([2]; E1p-ec with MeOThDP vs ThDP) | E1o specific activity, percent of that with ThDP ([3]; E1o-h) [%] | E1o specific activity ([3]; E1o-h alone) | pKa for the ([AP] + [IP])/[APH^+] equilibrium [4]
COc1ncc(C[n+]2csc(CCOP(=O)(O)OP(=O)(O)O)c2C)c(N)n1 [MeOThDP, 2′-methoxythiamin diphosphate] | 8.02 ± 0.03 | 4.4 | at least 10 times | – | – | –
Cc1ncc(C[n+]2csc(CCOP(=O)([O-])OP(=O)(O)O)c2C)c(N)n1 [ThDP, thiamin diphosphate] | – | – | – | 100 | 0.51 ± 0.02 µmol min^−1 (mg of E1o)^−1 and 0.44 ± 0.08 µmol min^−1 (mg of E1o)^−1 | 7.07 ± 0.1
